Patent US10039781B2, “Pulse inhalation of nitric oxide for treating respiratory diseases” (Advanced Inhalation Therapies (AIT) Ltd., priority 2015, dated 2018)
Read-outs that look alike come from different tables or passages of the source.

Experiments:
[1] = system: chronic, non-healing wound; conditions: topical 200 ppm gNO, cited from earlier work
Group B Streptococci = conditions: 200 ppm gNO until substantially eradicated; cited from earlier work
S. maltophilia = conditions: 200 ppm gNO until substantially eradicated; cited from earlier work
[2] = system: Pseudomonas aeruginosa pneumonia; conditions: 160 ppm gNO, intermittent 30 minute exposures, rat; cited from earlier work
S. aureus (ATCC) = conditions: 200 ppm gNO until substantially eradicated; cited from earlier work
[3] = cited from earlier work
MRSA = conditions: 200 ppm gNO until substantially eradicated; cited from earlier work
E. coli = conditions: 200 ppm gNO until substantially eradicated; cited from earlier work
[4] = system: five planktonic species of methicillin resistant S. aureous (MRSA); conditions: exposure to 1,600 ppm hours of gNO; cited from earlier work
microorganisms = assay: In vitro exposure to 200 ppm gNO, average over all microorganisms of Table 1; format: cell-based; conditions: average of the 15 microorganisms
From the text: In vitro studies of the antimicrobial and antiviral effect of gNO have shown that the viability and vitality of viruses, bacteria and fungi decreases to a point of substantial eradication after the pathogen has been exposed to a certain amount of nitric oxide over a certain period of time. This amount, which can be referred to as the effective amount, can be estimated in terms of the concentration of NO in the gas mixture contacted with the pathogen, times the duration of the exposure. For example, the effective amount can be estimated in units of ppm-time-hour, or ppm-hour. Table 1 presents experimental data gathered for microorganisms exposed to 200 ppm gNO until the microorganisms are substantially eradicated*.

Klebsiella sp.#2 = conditions: 200 ppm gNO until substantially eradicated; cited from earlier work
P. aeruginosa (ATCC) = conditions: 200 ppm gNO until substantially eradicated; cited from earlier work
Klebsiella sp. #1 = conditions: 200 ppm gNO until substantially eradicated; cited from earlier work
[5] = healthy humans, cited from earlier work
Klebsiella sp. #3 = conditions: 200 ppm gNO until substantially eradicated; cited from earlier work
Serracia sp. = conditions: 200 ppm gNO until substantially eradicated; cited from earlier work
[6] = system: bovine respiratory disease; conditions: intermittent 30 minute exposures of gNO, cattle; cited from earlier work
[7] = Prospective phase I open label safety study of inhaled 160 ppm gNO in healthy adults; format: in vivo, human; conditions: 160 ppm gNO for 30 minutes, five times a day
Mycobacterium smegmatis = conditions: 200 ppm gNO until substantially eradicated; cited from earlier work
Acinetobader sp. = conditions: 200 ppm gNO until substantially eradicated; cited from earlier work
[8] = rats, cited from earlier work
Enterobacter sp. = conditions: 200 ppm gNO until substantially eradicated; cited from earlier work
[9] = rats, gNO concentrations below 200 ppm, 6 hours/day for 28 days; cited from earlier work
S. aureus (Clinical) = conditions: 200 ppm gNO until substantially eradicated; cited from earlier work
Candida albicans = conditions: 200 ppm gNO until substantially eradicated; cited from earlier work
MRSA biofilm = conditions: 200 ppm gNO for eight hours (1,600 ppm hours); cited from earlier work
[10] = five consecutive days, healthy adults
[11] = 400 ppm gNO, first day of exposure
[12] = 500 ppm gNO, first day of exposure

## [N]=O [gNO, nitric oxide]
[1]; at one week
  wound size reduction: 42%
[1]; within the first three days of treatment
  presence of biofilm: no longer visibly present
Group B Streptococci
  Effective amount in ppm-hour: 400 ppm-hour
S. maltophilia
  Effective amount in ppm-hour: 800 ppm-hour
[2]
  pulmonary bioburden and leukocyte infiltration: effective to reduce the pulmonary bioburden and leukocyte infiltration
S. aureus (ATCC)
  Effective amount in ppm-hour: 800 ppm-hour
[3]; in vivo
  half-life in the body: less than 6 seconds
  radius of action from its site of origin: approximately 200 microns
[3]; predominant metabolite nitrate
  nitrate excreted in the urine, share of the nitric oxide dose inhaled: more than 70%
MRSA
  Effective amount in ppm-hour: 1000 ppm-hour
E. coli
  Effective amount in ppm-hour: 1000 ppm-hour
[4]
  population of MRSA planktonic strains: A reduction in the population of all five MRSA planktonic strains was observed
microorganisms
  Effective amount in ppm-hour, Average: 1013.33 ppm-hour
Klebsiella sp.#2
  Effective amount in ppm-hour: 1000 ppm-hour
P. aeruginosa (ATCC)
  Effective amount in ppm-hour: 600 ppm-hour
Klebsiella sp. #1
  Effective amount in ppm-hour: 1200 ppm-hour
[5]; inhalation of gNO at 128 ppm for 3 hours
  levels of MetHb: > 5%
[5]; inhalation of gNO at 512 ppm for 55 minutes
  levels of MetHb: > 5%
Klebsiella sp. #3
  Effective amount in ppm-hour: 1200 ppm-hour
Serracia sp.
  Effective amount in ppm-hour: 1200 ppm-hour
[6]
  clinical symptoms of bovine respiratory disease: shown to decrease the clinical symptoms
[7]; [10]
  Forced expiratory volume in 1 sec (FEV1) percentage and other lung function parameters: improved
  adverse events: neither significant adverse events nor adverse events attributable to gNO inhalation occurred
  methemoglobin levels: 0.9%
  tolerability: all individuals tolerated the gNO treatment courses well
[7]; baseline versus day 5
  serum nitrites/nitrates, prothrombin, pro-inflammatory cytokine and chemokine levels: did not differ between baseline and day 5
Mycobacterium smegmatis
  Effective amount in ppm-hour: 2000 ppm-hour
Acinetobader sp.
  Effective amount in ppm-hour: 1200 ppm-hour
[8]; 300 ppm gNO, groups of 10 rats
  mortality: Six of the animals treated with 300 ppm gNO died during the first 1-2 days
[8]; [11]
  MetHb levels: 72.5 percents
  mortality: all of the animals died
[8]; [12]
  MetHb levels: 67 percents
  mortality: all of the animals died
Enterobacter sp.
  Effective amount in ppm-hour: 1200 ppm-hour
[9]
  mortality: No deaths occurred
S. aureus (Clinical)
  Effective amount in ppm-hour: 800 ppm-hour
Candida albicans
  Effective amount in ppm-hour: 800 ppm-hour
MRSA biofilm
  MRSA in biofilm: shown to reduce MRSA
